Source: US20110306639A1, “HYDROCARBYLIDENE NITROHYDROZINECARBOXIMIDAMIDES AND A METHOD FOR MAKING THE SAME, AS WELL AS THEIR USES AS AN INSECTICIDE” (priority 2008, published 2011)
Like-named read-outs stand apart in the source and are kept apart here.

Key:
myzus persicae = details: for numbers of death/total numbers: 24 h; for mortality(%) myzus persicae (600 μg/mL): in vivo
Helicoverpa armigera = details: in vivo
asparagus caterpillar = details: in vivo
hyalopterus pruni = details: 24 h
aphis gossypii = details: 24 h

Row | SMILES | numbers of death/total numbers (myzus persicae; 25 μg/mL) | numbers of death/total numbers (myzus persicae; 50 μg/mL) | numbers of death/total numbers (myzus persicae; 100 μg/mL) | numbers of death/total numbers (myzus persicae; 200 μg/mL) | numbers of death/total numbers (myzus persicae; 400 μg/mL) | mortality(%) myzus persicae (600 μg/mL) (myzus persicae) | mortality(%) Helicoverpa armigera (500 μg/mL) (Helicoverpa armigera) | mortality(%) asparagus caterpillar (500 μg/mL) (asparagus caterpillar) | numbers of death/total numbers (hyalopterus pruni; 25 μg/mL) | numbers of death/total numbers (hyalopterus pruni; 50 μg/mL) | numbers of death/total numbers (hyalopterus pruni; 100 μg/mL) | numbers of death/total numbers (hyalopterus pruni; 200 μg/mL) | numbers of death/total numbers (hyalopterus pruni; 400 μg/mL) | numbers of death/total numbers (aphis gossypii; 3.13 μg/mL) | numbers of death/total numbers (aphis gossypii; 12.5 μg/mL) | numbers of death/total numbers (aphis gossypii; 50 μg/mL)
1 | CCCCC=NNC(=N[N+](=O)[O-])NCc1ccc(Cl)nc1 [Compound 56] | 104/104 | 96/99 | 149/149 | 81/81 | 77/77 | 100% | 70% | 20% | 100/104 | 96/101 | 121/121 | 101/101 | 103/103 | 121/157 | 136/164 | 166/178
2 | C=CCNC(=N[N+](=O)[O-])NN=Cc1ccccc1Cl [Compound 93] | 112/112 | 94/98 | 104/104 | 114/114 | 93/93 | 96.0% | 40% | 70% | 102/112 | 104/108 | 103/103 | 110/110 | 103/103 | 178/186 | 124/124 | 138/138
